# Source: US11708344B2, “Flavone derivatives for the treatment and prophylaxis of hepatitis B virus disease” (Hoffmann-La Roche Inc., priority 2018, dated 2023)
# System: HBeAg (surrogate marker for cccDNA) in HepDES19 cells
# Assay: Engineered HepDES19 primary screen assay (HBeAg ELISA)
# Assay type: cell-based, HBV
# Details: Hepatitis B virus, HepDES19, 120 h, read-out: IC50 (HBeAg level, HepDES19 primary screen assay), HepDES19 cells, 5 days compound incubation, HBeAg ELISA
# Excerpt: The assay was employed to screen for novel cccDNA inhibitors. HepDES19 is a cccDNA-producing cell line. In this cell line, HBeAg in the cell culture supernatant as surrogate marker, as HBeAg production depends on cccDNA level and activity. HepDES19 is an engineered cell line which contains a 1.1 unit length HBV genome, and pgRNA transcription from the transgene is controlled by Tetracycline (Tet). In the absence of Tet, pgRNA transcription will be induced, but HBV e antigen (HBeAg) could not be produced from this pgRNA due to very short leader sequence before the HBeAg start codon and the start codon is disrupted. Only after cccDNA is formed, the missing leader sequence and start codon mutation would be restored from the 3′-terminal redundancy of pgRNA, and then HBeAg could be synthesized. Therefore, HBeAg could be used as a surrogate marker for cccDNA (Zhou, T. et al., Antiviral Res. (2006), 72(2), 116-124; Guo, H. et al., J. Virol. (2007), 81(22), 12472-12484).
# HepDES19 cells were seeded at 2×10^6 cells per T150 flask and cultured with the culture medium (Dulbecco's Modified Eagle Medium: Nutrient Mixture F-12 [DMEM-F12, Gibco Cat. 11320-82], 10% Fetal Bovine Serum [FBS, Clontech Cat. 631101], 0.1 mM Non-Essential Amino Acids Solution [NEAA, Gibco Cat. 11140-050], 50 μg/mL Penicillin-Streptomycin [PS, Invitrogen Cat. 15140-163], 500 μg/mL Geneticin [G418, Invitrogen Cat. 10131-027]) containing 3 μg/mL Tet (Sigma, Cat. 87128) for 5 days. Cells were then seeded at 4×10^6 cells per T150 in the same culture medium as described above in the absence of Tet for 8 days. Cells were then harvested and frozen at density of 2×10^6 cells per mL. For compound testing, the frozen cells were thawed and seeded into 96-well plates at a density of 6×10^4 cells per well. At 24 hours after seeding, half log serial dilutions of compounds made with Dimethyl sulfoxide (DMSO, Sigma, Cat. D2650) were further diluted with the same culture medium as described above before they were added to the cells to reach desired final compound concentrations and 1% DMSO concentration. Plates were then incubated at 37° C. for another 5 days before measurement of HBeAg level and cell viability. […] HBeAg level were measured with enzyme-linked immunosorbent assay (ELISA) kit (Shanghai Kehua Diagnostic Medical Products Co., Ltd). Cell viability was assessed using Cell Counting Kit-8 (DonJindo, Cat. CK04-20). IC50 values were derived from the dose-response curve using 4 parameter logistic curve fit method.
# The compounds of the present invention were tested for their capacity to inhibit extracellular HBeAg level as described herein.
row,Compound,IC50 [µM]
1,"COc1cc(O[C@H]2C[C@@H](C(=O)NS(C)(=O)=O)C2)c(-c2cc(=O)c3cccc(Cl)c3o2)cc1Br [Example B055-A, Cis-3-[4-bromo-2-(8-chloro-4-oxo-chromen-2-yl)-5-methoxy-phenoxy]-N-methylsulfonyl-cyclobutanecarboxamide]",3.59
2,"COc1cc(O[C@H]2C[C@H](C(=O)O)C2)c(-c2cc(=O)c3cccc(Cl)c3o2)cc1Br [Example B014, Trans-3-[4-bromo-2-(8-chloro-4-oxo-chromen-2-yl)-5-methoxy-phenoxy]cyclobutanecarboxylic acid]",15.5
3,"O=c1cc(-c2ccc(C3CC3)cc2OCCO[C@H]2C[C@@H](C(=O)O)C2)oc2c(Cl)cccc12 [Example C069-A, Cis-3-[2-[2-(8-chloro-4-oxo-chromen-2-yl)-5-cyclopropyl-phenoxy]ethoxy]cyclobutanecarboxylic acid]",5.09
4,"COC(=O)CCOc1cc(Cl)c(C)cc1-c1cc(=O)c2cccc(Cl)c2o1 [Example A038, methyl 3-[5-chloro-2-(8-chloro-4-oxo-chromen-2-yl)-4-methyl-phenoxy]propanoate]",4.79
5,"O=c1cc(-c2cc(OC(F)(F)F)c(O)cc2OCCO[C@H]2C[C@@H](C(=O)O)C2)oc2c(Cl)cccc12 [Example C090, Cis-3-[2-[2-(8-chloro-4-oxo-chromen-2-yl)-5-hydroxy-4-(trifluoromethoxy)phenoxy]ethoxy]cyclobutanecarboxylic acid]",6.57
6,"O=C(O)C1CC(OCCOc2cc(Cl)ccc2-c2cc(=O)c3cccc(Cl)c3o2)C1 (stereo not drawn) [Example C004, 3-[2-[5-chloro-2-(8-chloro-4-oxo-chromen-2-yl)phenoxy]ethoxy]cyclobutanecarboxylic acid]",1.32
7,"O=C(COCCOc1cc(Br)ccc1-c1cc(=O)c2cccc(Cl)c2o1)N1CCC(O)C1 (stereo not drawn) [Example C126, 2-[4-bromo-2-[2-[2-(3-hydroxypyrrolidin-1-yl)-2-oxo-ethoxy]ethoxy]phenyl]-8-chloro-chromen-4-one]",4.4
8,"Cc1cc(-c2cc(=O)c3cccc(Br)c3o2)c(OCCC(=O)O)cc1Cl [Example A025, 3-[2-(8-bromo-4-oxo-chromen-2-yl)-5-chloro-4-methyl-phenoxy]propanoic acid]",3.55
9,"CSc1ccc(-c2cc(=O)c3cccc(Cl)c3o2)c(OCCO[C@H]2C[C@H](C(=O)O)C2)c1 [Example C064-B, trans-3-[2-[2-(8-chloro-4-oxo-chromen-2-yl)-5-methylsulfanyl-phenoxy]ethoxy]cyclobutanecarboxylic acid]",2.93
10,"O=c1cc(-c2ccc(Br)cc2OCCCO[C@H]2C[C@H](C(=O)O)C2)oc2c(Cl)cccc12 [Example C056-B, Trans-3-[3-[5-bromo-2-(8-chloro-4-oxo-chromen-2-yl)phenoxy]propoxy]cyclobutanecarboxylic acid]",2.18
11,COc1cccc(S(=O)(=O)N2C[C@@H](Oc3cc(C(F)(F)F)ccc3-c3cc(=O)c4cccc(Cl)c4o3)C[C@H]2C(=O)O)c1 [Example B079],1.52
12,"O=c1cc(-c2ccc(Br)cc2OCCO[C@H]2C[C@H](C(=O)O)C2)oc2c(Cl)c(F)ccc12 [Example C030-B, Trans-3-[2-[5-bromo-2-(8-chloro-7-fluoro-4-oxo-chromen-2-yl)phenoxy]ethoxy]cyclobutanecarboxylic acid]",12.8
13,"O=c1cc(-c2ccc(-c3nccs3)cc2OCCO[C@H]2C[C@H](C(=O)O)C2)oc2c(Cl)cccc12 [Example C066-B, Trans-3-[2-[2-(8-chloro-4-oxo-chromen-2-yl)-5-thiazol-2-yl-phenoxy]ethoxy]cyclobutanecarboxylic acid]",1.02
14,"O=c1cc(-c2ccc(Br)cc2OCCO[C@H]2C[C@H](C(=O)O)C2)oc2c(Cl)cccc12 [Example C003-B, tram-3-[2-[5-bromo-2-(8-chloro-4-oxo-chromen-2-yl)phenoxy]ethoxy]cyclobutanecarboxylic acid]",1.34
15,"O=C(O)C1CC(OCCOc2cnccc2-c2cc(=O)c3cccc(Cl)c3o2)C1 (stereo not drawn) [Example C061, 3-[2-[[4-(8-chloro-4-oxo-chromen-2-yl)-3-pyridyl]oxy]ethoxy]cyclobutanecarboxylic acid]",3.35
16,"CC(C)(OCCCOc1cc(C(F)(F)F)ccc1-c1cc(=O)c2cccc(Cl)c2o1)C(=O)O [Example C109, 2-[3-[2-(8-chloro-4-oxo-chromen-2-yl)-5-(trifluoromethyl)phenoxy]propoxy]-2-methyl-propanoic acid]",0.995
17,"O=c1cc(-c2ccccc2O)oc2cc(O)ccc12 [Example F-1, 7-hydroxy-2-(2-hydroxyphenyl)chromen-4-one, reference compound]",> 50
18,"O=c1cc(-c2ccc(-c3nccs3)cc2OCCO[C@H]2C[C@@H](C(=O)O)C2)oc2c(Cl)cccc12 [Example C066-A, Cis-3-[2-[2-(8-chloro-4-oxo-chromen-2-yl)-5-thiazol-2-yl-phenoxy]ethoxy]cyclobutanecarboxylic acid]",1.02
19,"Cc1ccc2c(=O)cc(-c3ccccc3OCCO[C@H]3C[C@H](C(=O)O)C3)oc2c1Cl [Example C029-B, Trans-3-[2-[2-(8-chloro-7-methyl-4-oxo-chromen-2-yl)phenoxy]ethoxy]cyclobutanecarboxylic acid]",1.32
20,"COc1ccc2oc(-c3ccccc3OC)cc(=O)c2c1 [Example F-2, 6-methoxy-2-(2-methoxyphenyl)chromen-4-one, reference compound]",> 50
21,"COC(=O)[C@H]1C[C@H](OCCOc2cc(S(C)(=O)=O)ccc2-c2cc(=O)c3cccc(Cl)c3o2)C1 [Example C065-B, Trans-methyl 3-[2-[2-(8-chloro-4-oxo-chromen-2-yl)-5-methylsulfonyl-phenoxy]ethoxy]cyclobutanecarboxylate]",12.2
22,"COC(=O)C1CC(OCCOc2cc(N3CCOC3=O)ccc2-c2cc(=O)c3cccc(Cl)c3o2)C1 (stereo not drawn) [Example C062a, methyl 3-[2-[2-(8-chloro-4-oxo-chromen-2-yl)-5-(2-oxooxazolidin-3-yl)phenoxy]ethoxy]cyclobutanecarboxylate]",2.45
23,"O=C(O)c1cccc(COc2cc(Br)ccc2-c2cc(=O)c3cccc(Cl)c3o2)c1 [Example A072, 3-[[5-bromo-2-(8-chloro-4-oxo-chromen-2-yl)phenoxy]methyl]benzoic acid]",0.366
24,"O=C(O)C1CCC(OCCOc2cc(Br)ccc2-c2cc(=O)c3cccc(Cl)c3o2)C1 (stereo not drawn) [Example C106, 3-[2-[5-bromo-2-(8-chloro-4-oxo-chromen-2-yl)phenoxy]ethoxy]cyclopentanecarboxylic acid]",2.1
25,"COc1cc(OCCO[C@H]2C[C@H](C(=O)O)C2)c(-c2cc(=O)c3cccc(Cl)c3o2)cc1Br [Example C040-B, Trans-3-[2-[4-bromo-2-(8-chloro-4-oxo-chromen-2-yl)-5-methoxy-phenoxy]ethoxy]cyclobutanecarboxylic acid]",17.1
26,"O=c1cc(-c2ccccc2OCCO[C@H]2C[C@@H](C(=O)O)C2)oc2c(Cl)c(C3CC3)ccc12 [Example C058-A, Cis-3-[2-[2-(8-chloro-7-cyclopropyl-4-oxo-chromen-2-yl)phenoxy]ethoxy]cyclobutanecarboxylic acid]",5.1
27,COc1cc(O[C@H]2C[C@@H](C(=O)O)N(S(=O)(=O)c3ccccc3)C2)c(-c2cc(=O)c3cccc(Cl)c3o2)cc1OC [Example B081],3.11
28,"O=c1cc(-c2ccc(Br)cc2OCCO[C@H]2C[C@@H](C(=O)O)C2)oc2c(Cl)c(F)ccc12 [Example C030-A, Cis-3-[2-[5-bromo-2-(8-chloro-7-fluoro-4-oxo-chromen-2-yl)phenoxy]ethoxy]cyclobutanecarboxylic acid]",1.37
29,"Cc1cc(-c2cc(=O)c3cccc(Cl)c3o2)c(OCC2(CC(=O)O)CC2)cc1Br [Example A068, 2-[1-[[5-bromo-2-(8-chloro-4-oxo-chromen-2-yl)-4-methyl-phenoxy]methyl]cyclopropyl]acetic acid]",5.7

# Same assay, conditions: read-out: IC50 (HBeAg level, HepDES19 primary screen assay); HepDES19 cells, 5 days compound incubation, HBeAg ELISA
row,Compound,IC50 [µM]
1,"O=C(O)C1CC(COc2cc(Br)ccc2-c2cc(=O)c3cccc(Cl)c3o2)C1 (stereo in doubt) [Example B025-A, Cis-3-[[5-bromo-2-(8-chloro-4-oxo-chromen-2-yl)phenoxy]methyl]cyclobutanecarboxylic acid]",4.92
